Experiments:
[1] = system: Gerbillinae; test: Inhibition of GR-73632-induced Gerbil foot tapping after immediate pretreatment iv; assay type: functional; details: read-out: ID50 (the source's name)
[2] = target: Substance-P receptor (Homo sapiens, UniProt P25103); test: In vitro inhibition of binding of [125I]-substance P to tachykinin receptor 1
[3] = system: Gerbillinae; test: Inhibition of GR-73632-induced Gerbil foot tapping after 24 hr pretreatment iv; assay type: functional; details: read-out: ID50 (the source's name)

Substance-P receptor, sequence (P25103 whole entry): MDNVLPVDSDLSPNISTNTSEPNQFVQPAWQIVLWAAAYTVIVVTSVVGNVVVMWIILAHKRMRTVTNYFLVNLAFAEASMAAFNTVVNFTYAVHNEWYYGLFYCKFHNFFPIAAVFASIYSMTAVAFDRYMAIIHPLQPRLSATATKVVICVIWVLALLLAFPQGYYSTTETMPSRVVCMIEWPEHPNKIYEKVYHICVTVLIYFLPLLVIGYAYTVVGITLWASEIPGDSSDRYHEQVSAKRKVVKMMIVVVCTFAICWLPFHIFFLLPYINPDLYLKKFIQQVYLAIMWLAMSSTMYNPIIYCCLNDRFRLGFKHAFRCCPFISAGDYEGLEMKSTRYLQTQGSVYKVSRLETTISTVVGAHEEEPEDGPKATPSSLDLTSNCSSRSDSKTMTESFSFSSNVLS

SMILES	ED50 [1]	IC50 [2]	ED50 [3]
C[C@@H](O[C@H]1OCCN(Cc2nn[nH]c2CN2CCCC2)[C@H]1c1ccc(F)cc1)c1cc(C(F)(F)F)cc(C(F)(F)F)c1	0.4 mg/kg	0.21 nM	–
CC(C)N(Cc1[nH]nnc1CN1CCO[C@H](O[C@H](C)c2cc(C(F)(F)F)cc(C(F)(F)F)c2)[C@@H]1c1ccc(F)cc1)C(C)C	1 mg/kg	0.35 nM	–
C[C@@H](O[C@H]1OCCN(Cc2nn[nH]c2CN)[C@H]1c1ccc(F)cc1)c1cc(C(F)(F)F)cc(C(F)(F)F)c1	5.3 mg/kg	0.25 nM	–
C[C@@H](O[C@H]1OCCN(Cc2n[nH]c(=O)[nH]2)[C@H]1c1ccc(F)cc1)c1cc(C(F)(F)F)cc(C(F)(F)F)c1 [APREPITANT]	0.4 mg/kg	–	0.3 mg/kg
C[C@@H](OC1OCCN(Cc2n[nH]nc2CN2CCC2)[C@H]1c1ccc(F)cc1)c1cc(C(F)(F)F)cc(C(F)(F)F)c1 (stereo not given in full)	0.4 mg/kg	0.19 nM	–
CNCc1nn[nH]c1CN1CCOC(O[C@H](C)c2cc(C(F)(F)F)cc(C(F)(F)F)c2)[C@@H]1c1ccc(F)cc1 (stereo not given in full)	3.1 mg/kg	0.29 nM	–
C[C@@H](OC1OCCN(Cc2n[nH]nc2CN(C)C)[C@H]1c1ccc(F)cc1)c1cc(C(F)(F)F)cc(C(F)(F)F)c1.Cl (stereo not given in full)	0.2 mg/kg	0.19 nM	0.3 mg/kg

Reference: ChEMBL document CHEMBL1134298, “An orally active, water-soluble neurokinin-1 receptor antagonist suitable for both intravenous and oral clinical administration” (J Med Chem, 2001)
